According to ChEMBL document CHEMBL1201862, “PubChem BioAssay data set” (2004):
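96-well plates; 48 h exposure; 5 concentrations. Endpoints by linear interpolation between flanking doses. Not reached: highest tested concentration assigned. GI50 is the concentration that inhibits growth by half.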 The source made the active and inactive calls. Cut-off read from the data, not from the text of the source: active = GI50 up to about 1.1 µM and inactive = higher.

Assays:
Assay in all cases: NCI-60 cell line screen, 48 h
[1] = system: A498
[2] = system: COLO 205
[3] = system: EKVX
[4] = system: HCC 2998
[5] = system: HCT-116
[6] = system: HOP-62
[7] = system: K562
[8] = system: MOLT-4
[9] = system: NCI-H522
[10] = system: OVCAR-4
[11] = system: OVCAR-5
[12] = system: SF-268
[13] = system: SK-MEL-28
[14] = system: SK-OV-3
[15] = system: SNB-19
[16] = system: SNB-75
[17] = system: SNB-78
[18] = system: SW-620
[19] = system: U-251
[20] = system: M14

Measured: GI50

Cc1cc(C)c(C2=NO[C@@H]3[C@H]2C(=O)C=C2N(Cc4ccccc4)CCO[C@@]23O)c(C)c1
inactive: [1] > 100 µM | [2] > 100 µM | [3] > 100 µM | [4] > 100 µM | [5] > 100 µM | [6] > 100 µM | [7] > 100 µM | [8] > 100 µM | [9] > 100 µM | [10] > 100 µM | [11] > 100 µM | [12] > 100 µM | [13] > 100 µM | [14] > 100 µM | [15] > 100 µM | [16] > 94.2 µM | [17] > 100 µM | [18] > 100 µM | [19] > 100 µM

O=S(O)c1cc(Cl)cc(Cl)c1O
inactive: [1] > 100 µM | [3] > 100 µM | [4] > 100 µM | [5] > 100 µM | [6] > 100 µM | [7] > 100 µM | [20] > 100 µM | [8] > 100 µM | [9] > 100 µM | [10] > 100 µM | [11] > 100 µM | [12] > 100 µM | [13] > 100 µM | [14] > 100 µM | [15] > 100 µM | [16] 75.9 µM | [17] > 100 µM | [19] > 100 µM

CC1CC=CC(O)C1 (stereo not drawn)
inactive: [1] > 100 µM | [2] > 100 µM | [3] > 100 µM | [4] > 100 µM | [5] > 100 µM | [6] > 100 µM | [7] > 100 µM | [8] > 100 µM | [9] > 100 µM | [10] > 100 µM | [11] > 100 µM | [12] > 100 µM | [13] > 100 µM | [14] > 100 µM | [15] > 100 µM | [16] > 93.5 µM | [17] > 100 µM | [18] > 100 µM | [19] > 100 µM

OCC1C2C=CC(O2)[C@H]1CO (stereo partly drawn)
inactive: [1] > 100 µM | [2] > 100 µM | [3] > 100 µM | [4] > 100 µM | [5] > 100 µM | [6] > 100 µM | [20] > 100 µM | [8] > 100 µM | [9] > 100 µM | [10] > 100 µM | [11] > 100 µM | [12] > 100 µM | [13] > 100 µM | [14] > 100 µM | [15] > 100 µM | [16] > 100 µM | [17] > 100 µM | [18] > 100 µM | [19] > 100 µM

CCOCc1cc(=O)c2c(O)cc3c(c2o1)CCC(C)(C)O3
inactive: [1] > 100 µM | [2] > 100 µM | [3] > 100 µM | [7] > 100 µM | [20] > 100 µM | [8] > 100 µM | [9] > 100 µM | [12] > 100 µM | [13] > 100 µM | [14] > 100 µM | [15] > 100 µM | [16] > 100 µM | [17] > 100 µM | [18] > 100 µM | [19] > 100 µM

CN(C)CCNC(=O)c1ccc(Cl)c2ccc(-c3ccccc3)nc12
inactive: [1] 5.16 µM | [2] 1.61 µM | [4] 4.67 µM | [5] 1.88 µM | [6] 1.52 µM | [7] 2.27 µM | [8] 1.82 µM | [9] 3.89 µM | [10] 3.54 µM | [11] 3.49 µM | [12] 4.45 µM | [13] 4.27 µM | [14] 4.7 µM | [15] 3.06 µM | [16] 3.57 µM | [17] 6.32 µM | [18] 2.19 µM | [19] 2.93 µM
